In patent US20120295838A1, “Selective poly-substituted glycine antibiotics and related compositions” (priority 2008, published 2012):
Square brackets hold non-standard residues; d marks the D form. Peptide text beside a SMILES is read from it. Gly(N-CH2CH2-imidazol-4-yl) = O=C(O)CNCCc1c[nH]cn1; Nspe = C[C@H](NCC(=O)O)c1ccccc1; Nlys = NCCCCNCC(=O)O

Tested on: Staphyloccus aureus (ATCC #25923)
Assay: Murine intraperitoneal infection model
Format: in vivo
Details: mouse, S. aureus I.P.
Method: Using a murine peritoneal injection mouse model, the ability of peptoids to treat infection was evaluated in vivo. The results from three separate studies of peptoid 1 and two of peptoid 1-Nhis6,12 against saline treated controls are shown in FIG. 7. The horizontal line represents the geometric mean of each population.
Murine intraperitoneal infection model. Bacteria was prepared by inoculating 5 mL of MHB with a single colony of Staphyloccus aureus (ATCC #25923) from a freshly streaked plate and grown overnight at 37 C. The following morning, the bacteria was subcultured by diluting 1/3 in MHB and grown for approximately 1 .5 hours. The bacteria were then diluted 10-fold in a 5% mucin in PBS solution and thoroughly mixed. A sample was reserved to later determine the amount of bacteria the mice received.
Mice were weighed, marked, and injected I.P. with 200 uL of S. aureus inoculum. Four hours post infection, mice were treated I.P. with 4 mg/kg peptoid (˜100 ug per mouse). The infection is allowed to proceed overnight. Mice were euthanized by CO2 asphyxiation after 24 hours, and the peritoneal cavity was exposed and lavaged with 5 mL PBS. The lavage was mixed and reserved on ice until plating. The lavages were diluted to 10^−5 (in1/10 increments) in PBS, and all dilutions were plated onto MH agar, in duplicate. 50 uL of lavage was spot plated, allowed to dry, and incubated overnight at 37° C. Colonies were counted the following day, and the CFU/ml of each sample was calculated. Plates that had too many colonies to count were assigned an arbitrary number of 1000 colonies.

Which “bacterial counts from the peritoneal lavage” value (4 mg/kg peptoid I.P. four hours post infection, 24 hours, vs saline treated controls) does the source give for `C[C@@H](c1ccccc1)N(CC(=O)N(CCc1cnc[nH]1)CC(=O)N(CCCCN)CC(=O)N(CC(=O)N(CC(=O)N(CCCCN)CC(=O)N(CC(=O)N(CCc1cnc[nH]1)CC(N)=O)[C@@H](C)c1ccccc1)[C@@H](C)c1ccccc1)[C@@H](C)c1ccccc1)C(=O)CN(CCCCN)C(=O)CN(C(=O)CN(C(=O)CNCCCCN)[C@@H](C)c1ccccc1)[C@@H](C)c1ccccc1` [1-Nhis6,12, H-(Nlys-Nspe-Nspe-Nlys-Nspe-Nhis)2-NH2] (H-[Nlys][Nspe][Nspe][Nlys][Nspe][Gly(N-CH2CH2-imidazol-4-yl)][Nlys][Nspe][Nspe][Nlys][Nspe][Gly(N-CH2CH2-imidazol-4-yl)]-NH2) here?
The value was “not reduced”.

What about the “mice that died prematurely during the exposure period” value (4 mg/kg peptoid I.P., eleven mice for 1-Nhis6,12) of the same compound?
Its value is “eight”.
